{"source": "patent US7273951B2", "about": "“Polyhydroxy phenols and their use in binding p-selectin” (Astellas Pharma Inc., priority 2003, dated 2007)", "key": {"[1]": {"target": "T1, human P-selectin (Homo sapiens, UniProt P16109)", "T1 construct": "purchased R&D Systems Europe Ltd., Abingdon, United Kingdom", "T1 sequence (P16109 with tags, fused parts or gaps limits assumed)": "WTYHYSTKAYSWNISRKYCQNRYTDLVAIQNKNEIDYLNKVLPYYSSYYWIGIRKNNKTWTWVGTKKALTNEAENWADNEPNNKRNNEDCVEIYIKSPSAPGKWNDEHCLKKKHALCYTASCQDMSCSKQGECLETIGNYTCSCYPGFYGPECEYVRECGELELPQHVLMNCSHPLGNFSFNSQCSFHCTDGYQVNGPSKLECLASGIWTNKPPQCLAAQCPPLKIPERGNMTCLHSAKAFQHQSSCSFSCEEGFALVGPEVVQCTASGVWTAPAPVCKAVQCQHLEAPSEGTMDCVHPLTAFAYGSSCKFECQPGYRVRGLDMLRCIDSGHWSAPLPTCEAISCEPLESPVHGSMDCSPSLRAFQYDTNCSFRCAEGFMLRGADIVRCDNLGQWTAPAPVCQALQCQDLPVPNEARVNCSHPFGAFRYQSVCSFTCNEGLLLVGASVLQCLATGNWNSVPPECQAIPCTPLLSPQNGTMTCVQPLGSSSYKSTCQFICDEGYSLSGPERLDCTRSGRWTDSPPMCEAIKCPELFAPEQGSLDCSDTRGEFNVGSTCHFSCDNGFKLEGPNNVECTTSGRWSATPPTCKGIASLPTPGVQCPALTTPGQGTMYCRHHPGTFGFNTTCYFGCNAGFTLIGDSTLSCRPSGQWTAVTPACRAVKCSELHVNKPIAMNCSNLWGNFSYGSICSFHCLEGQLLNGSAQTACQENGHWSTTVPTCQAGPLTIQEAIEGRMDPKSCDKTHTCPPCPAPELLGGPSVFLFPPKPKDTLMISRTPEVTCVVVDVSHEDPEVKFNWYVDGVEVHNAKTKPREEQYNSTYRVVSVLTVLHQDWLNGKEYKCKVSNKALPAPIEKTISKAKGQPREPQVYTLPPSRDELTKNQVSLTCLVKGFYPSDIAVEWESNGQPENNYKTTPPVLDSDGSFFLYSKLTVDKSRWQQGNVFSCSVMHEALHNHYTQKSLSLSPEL", "assay": "Competition assay with biotin-PAA-Le^a-SO3H", "settings": "read-out: IC50, inhibition of biotin-PAA-Le^a-SO3 binding to human P-selectin", "description": "(§1) Gallic acid (Acros, Geel, Belgium) was assayed for its ability to inhibit TM11-PO binding to human P-selectin. […] For competition studies, a 96 wells microtiter plate (high binding, flat bottom, Costar, Corning, U.S.A.) was coated overnight at 4° C. with 10 μg/ml goat anti-human IgG (Fc specific) (Sigma-Aldrich, Zwijndrecht, the Netherlands) in coating buffer (50 mM NaHCO3, pH 9.6). Subsequently, wells were washed with assay buffer and incubated for 1 hour at 37° C. with blocking buffer (3% BSA in assay buffer). After washing with assay buffer, the wells were incubated for 2 hours at 37° C. with the human P-selectin IgG-Fc chimera (R&D Systems Europe Ltd., Abingdon, United Kingdom) (0.3 μg/ml). Subsequently, wells were washed with assay buffer and incubated for 1 hour at 4° C. with the TM11-PO complex. The wells were washed six times with washing buffer (0.1% Tween 20 in assay buffer). […] (TMB)/hydrogen peroxide (H2O2) (Pierce, Rochford, U.S.A.) was added and wells were incubated at room temperature for 15 minutes. The reaction was halted by addition of 2 M H2SO4 and the absorbance was measured at 450 nm.\n(§2) To be able to test gallic acid binding also to other members of the selectin family (i.e. E- and L-selectin), biotin-PAA-Le^a-SO3H (Synthesone, Munich, Germany) instead of TM11-PO was used as ligand in the competition assay. This polyacrylamide (PAA) based polymer with attached sulfo-Lewis A groups, is an established selectin ligand.\n(§3) Experimentally, the same procedure was used as in example 7 however with the following differences. After washing with assay buffer, the wells were incubated for 2 hours at 37° C. with the human P-selectin IgG-Fc chimera, mouse P-selectin IgG-Fc chimera, human L-selectin IgG-Fc chimera and human E-selectin IgG-Fc chimera respectively (all from R&D Systems Europe Ltd., Abingdon, United Kingdom) (0.3 μg/ml). Subsequently the wells of the microtiter plate were incubated with biotin-PAA-Le^a-SO3H (0.33 μg/ml) for 2 hours at 37° C., instead of with the TM11-PO-complex."}, "[2]": {"system": "platelets", "assay": "TRAP-induced platelet aggregation in platelet-rich plasma", "format": "cell-based, human", "settings": "for Maximal platelet aggregation: TRAP 6.5 μM, human PRP", "description": "Freshly drawn venous blood from healthy volunteers was collected with an informed consent into 1/10 volume of 3.2% tri-sodium citrate (w/v). These donors denied to have taken aspirin or other platelet function inhibitors during the previous ten days. Platelet-rich plasma (PRP) was prepared by centrifugation (150 g, 15 min, 22° C.). PRP was adjusted to a final concentration of 200,000 platelets/μl with platelet-poor plasma (PPP), which was obtained after an additional centrifugation step of the remaining blood (1100 g, 15 min, 22° C.). PRP was left for 30 min at 37° C. to ensure a resting state of the platelets. Afterwards, PRP was incubated for 5 min with different concentrations of gallic acid, EGCG or solvent at 37° C. Samples were transferred to an aggregometer (Kordia BV, Leiden, The Netherlands) to determine platelet aggregation at a stirring speed of 900 r.p.m. Platelet aggregation was initiated after preincubation with different concentrations of GA or EGCG (0, 50, 250 and 500 μM) by the addition of thrombin receptor activating peptide (TRAP, 6.5 μM, 37° C.)."}, "[3]": {"target": "T2, mouse P-selectin (Mus musculus, UniProt Q01102)", "T2 construct": "purchased R&D Systems Europe Ltd., Abingdon, United Kingdom", "T2 sequence (Q01102 with tags, fused parts or gaps limits assumed)": "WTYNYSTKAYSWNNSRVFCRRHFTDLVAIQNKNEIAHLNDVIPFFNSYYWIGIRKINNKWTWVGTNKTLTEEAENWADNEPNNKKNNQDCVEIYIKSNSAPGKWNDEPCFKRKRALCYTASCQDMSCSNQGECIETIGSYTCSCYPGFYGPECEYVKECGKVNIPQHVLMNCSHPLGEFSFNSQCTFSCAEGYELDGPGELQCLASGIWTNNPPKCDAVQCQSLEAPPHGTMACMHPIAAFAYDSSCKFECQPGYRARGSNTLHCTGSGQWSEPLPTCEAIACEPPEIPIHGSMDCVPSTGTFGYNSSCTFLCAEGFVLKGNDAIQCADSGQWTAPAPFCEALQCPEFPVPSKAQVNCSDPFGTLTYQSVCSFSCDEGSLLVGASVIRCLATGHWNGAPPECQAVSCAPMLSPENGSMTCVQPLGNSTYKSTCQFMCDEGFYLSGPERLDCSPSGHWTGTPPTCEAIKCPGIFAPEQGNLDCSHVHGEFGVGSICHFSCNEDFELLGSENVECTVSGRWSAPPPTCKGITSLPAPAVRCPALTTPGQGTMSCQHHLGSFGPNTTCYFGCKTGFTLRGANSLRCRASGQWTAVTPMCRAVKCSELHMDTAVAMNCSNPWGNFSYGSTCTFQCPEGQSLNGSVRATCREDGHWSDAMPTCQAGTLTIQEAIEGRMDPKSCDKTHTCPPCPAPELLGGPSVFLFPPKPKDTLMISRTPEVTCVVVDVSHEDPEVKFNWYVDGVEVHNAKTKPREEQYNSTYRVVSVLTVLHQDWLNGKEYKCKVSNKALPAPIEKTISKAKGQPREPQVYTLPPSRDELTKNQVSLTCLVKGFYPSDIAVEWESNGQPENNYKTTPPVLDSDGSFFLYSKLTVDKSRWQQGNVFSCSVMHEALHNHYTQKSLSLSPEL", "assay": "Competition assay with biotin-PAA-Le^a-SO3H", "format": "binding", "settings": "biotin-PAA-Le^a-SO3H ligand", "description": "as §1, §2, §3"}, "[4]": {"target": "T3, human L-selectin (Homo sapiens, UniProt P14151)", "T3 construct": "purchased R&D Systems Europe Ltd., Abingdon, United Kingdom", "T3 sequence (P14151 with tags, fused parts or gaps limits assumed)": "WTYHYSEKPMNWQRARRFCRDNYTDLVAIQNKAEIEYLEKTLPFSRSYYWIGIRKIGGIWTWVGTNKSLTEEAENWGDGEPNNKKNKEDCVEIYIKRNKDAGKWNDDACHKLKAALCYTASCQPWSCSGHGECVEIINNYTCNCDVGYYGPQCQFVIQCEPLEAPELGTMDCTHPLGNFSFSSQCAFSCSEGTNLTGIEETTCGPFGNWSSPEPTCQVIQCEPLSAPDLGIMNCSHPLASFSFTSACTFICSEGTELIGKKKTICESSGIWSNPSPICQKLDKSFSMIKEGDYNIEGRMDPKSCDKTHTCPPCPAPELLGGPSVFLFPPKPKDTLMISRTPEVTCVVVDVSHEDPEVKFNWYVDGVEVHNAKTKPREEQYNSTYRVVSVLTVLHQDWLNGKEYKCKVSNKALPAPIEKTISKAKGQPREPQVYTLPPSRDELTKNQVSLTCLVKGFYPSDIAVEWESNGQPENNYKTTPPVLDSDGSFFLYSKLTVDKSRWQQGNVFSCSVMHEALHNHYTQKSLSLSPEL", "assay": "Competition assay with biotin-PAA-Le^a-SO3H", "format": "binding", "description": "as §1, §2, §3"}, "[5]": {"target": "T4, human E-selectin (Homo sapiens, UniProt P16581)", "T4 construct": "purchased R&D Systems Europe Ltd., Abingdon, United Kingdom", "T4 sequence (P16581 with tags, fused parts or gaps limits assumed)": "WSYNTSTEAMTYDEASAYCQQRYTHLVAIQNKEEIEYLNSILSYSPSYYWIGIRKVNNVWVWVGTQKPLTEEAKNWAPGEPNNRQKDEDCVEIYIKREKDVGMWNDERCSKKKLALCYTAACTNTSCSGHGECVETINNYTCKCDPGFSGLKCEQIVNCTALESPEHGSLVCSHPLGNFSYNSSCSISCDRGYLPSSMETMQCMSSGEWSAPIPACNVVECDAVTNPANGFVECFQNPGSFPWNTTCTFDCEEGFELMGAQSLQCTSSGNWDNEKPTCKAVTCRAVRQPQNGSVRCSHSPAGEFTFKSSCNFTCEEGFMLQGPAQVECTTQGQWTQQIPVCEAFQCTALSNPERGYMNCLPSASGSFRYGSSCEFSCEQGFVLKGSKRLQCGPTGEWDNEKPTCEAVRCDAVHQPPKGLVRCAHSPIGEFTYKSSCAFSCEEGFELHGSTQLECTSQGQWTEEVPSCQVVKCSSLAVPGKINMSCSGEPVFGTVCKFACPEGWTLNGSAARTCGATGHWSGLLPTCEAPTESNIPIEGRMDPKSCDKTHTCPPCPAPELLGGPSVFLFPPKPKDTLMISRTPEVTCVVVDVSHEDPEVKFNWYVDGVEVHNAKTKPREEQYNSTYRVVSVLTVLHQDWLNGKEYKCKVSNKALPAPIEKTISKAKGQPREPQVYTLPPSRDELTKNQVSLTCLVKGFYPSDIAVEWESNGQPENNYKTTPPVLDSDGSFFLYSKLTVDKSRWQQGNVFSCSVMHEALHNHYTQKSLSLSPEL", "assay": "Competition assay with biotin-PAA-Le^a-SO3H", "format": "binding", "settings": "concentrations up to 1 mM; biotin-PAA-Le^a-SO3H ligand", "description": "as §1, §2, §3"}, "[6]": {"target": "T1, human P-selectin", "assay": "Competition assay of gallic acid with TM11-PO", "format": "binding", "description": "as §1"}, "[7]": {"system": "leukocyte-platelet conjugates rolling over femoral vein endothelium", "assay": "In vivo rolling/tumbling of leukocyte-platelet conjugates (rosettes) over femoral vein endothelium", "design": "species or system mice", "description": "Human blood was collected on 1:6 acid-citrate-dextrose (ACD: 93 mM trisodium citrate, 7 mM citric acid, 140 mM dextrose, pH 6.5) and 1 μM tirofiban. Human platelet rich plasma (PRP) was prepared via centrifugation at 150 g for 15 min. Murine blood was collected on 20 μg/ml hirudin and was centrifuged at 800 g for 30 sec, immediately followed by a second centrifugation at 150 g for 5 min to prepare PRP. The isolated PRP (human or murine) was then mixed with two volumes of ACD and recentrifuged at 800 g for 5 min. Subsequently, washed platelets were resuspended in HEPES-Tyrode's buffer (5 mM HEPES, 137 mM NaCl, 2.7 mM KCl, 12 mM NaHCO3, 0.36 mM NaH2PO4, 1% (w/v) glucose, pH 7.3) containing 1% (v/v) human serum albumin (HAS) at 10^6 platelets/μl. They were then incubated for 20 min at 37° C. with 5 μM calcein-AM, an acetoxymethyl ester, fluorescent once cleaved by non-specific esterases inside the cell, with no detectable effect on platelet function in our perfusion studies. The platelet suspension was then centrifuged at 700 g for 25 min and fluorescent platelets were resuspended in HEPES-Tyrode's buffer, and murine platelets were injected as such in mice.\nAll animal experiments were reviewed and approved by the Institutional Review Board of the University of Leuven and were performed in compliance with the guidelines of the International Society on Thrombosis and Haemostasis (Giles AR). For the study of platelet-assisted leukocyte rolling over the endothelial surface of blood vessels in vivo, on-line video microscopy was performed in mice. […] mice (6-12 weeks old) were anesthetized with Nembutal (70 mg/kg) via i.p. injection, and the jugular vein was catheterized. The femoral vein was exposed and mice were positioned on the table of an inverted epifluorescent microscope, such that the blood circulation in the femoral vein could be visualized through a Cohu CCD video camera. Fluorescent-labeled murine platelets were then injected in the catheterized jugular vein (500×10^6 platelets in 200 μl) and baseline rolling was recorded for the labeled platelets. […] After 5 min, the collagen-induced rolling and tumbling of leukocyte-platelet conjugates was then recorded for 10 min. The number of rosettes rolling were counted and their average tumbling speed was calculated from the registered movies. To address the effect of gallic acid on rosette rolling, it was infused 5 min prior to collagen administration and the rosette rolling was analysed as in the controls. […] Tumbling rosettes were counted 10 min after the collagen injection, before and after gallic acid infusion of 0.75 to 7.5 mg/kg.h. […]"}, "[8]": {"system": "HL60 cells / human P-selectin expressing Chinese hamster ovary cells (CHO-P)", "assay": "Dynamic interactions between HL60 cells and CHO-P monolayers in parallel-plate perfusion chamber", "format": "cell-based", "description": "Chinese hamster ovary (CHO) cells stably transfected with human P-selectin (CHO—P) were kindly donated by Dr. Modderman (University of Amsterdam, Amsterdam, the Netherlands). Cells were grown in DMEM (BioWhittaker Europe, Verviers, Belgium) containing 10% foetal calf serum (FCS) (BioWitthaker), 5 mM L-glutamine, 20,000 units penicillin/streptomycin (BioWhittaker) and 5 mM non-essential amino acids (Gibco, Paisley, United Kingdom). Flasks with cells were incubated at 37° C. in 5% CO2 for 3 or 4 days until cells had grown nearly confluent.\nHL60 cells were from ATCC and grown in RPMI 1640 medium (BioWhittaker) with 10% FCS, 5 mM L-glutamine and 20,000 units penicillin/streptomycin.\nDynamic interactions between […], displaying a high expression of PSGL-1, the natural P-selectin ligand, and human P-selectin expressing Chinese hamster ovary cell (CHO—P cells) monolayers grown onto glass coverslips coated with 30 μg/ml collagen S (type I) (Roche Diagnosis, Brussels, Belgium) were analysed in a parallel-plate perfusion chamber with a method adapted from G. Theilmeier (Blood 1999, 94: 2725-2734). The coverslip constituted the bottom of the chamber and the actual chamber was formed by a 254-μm height silicon rubber gasket designed with a conically shaped flow path, thus resulting in a 3-fold increase of wall shear rate from the inlet of the chamber to the outlet. Calcein-AM labeled HL60 cells, suspended in RPMI (0.5×10^6/ml) were perfused at 37° C. and at a flow rate of 1 ml/min with an inverted syringe pump (Harvard Instruments, South Natick, Mass., U.S.A.). The flow chamber was mounted on the table platform of an inverted epifluorescence microscope (Diaphot; Nikon, Melville, N.Y., U.S.A.) coupled to a Cohu CCD video camera (COHU Inc, San Diego, Calif., U.S.A.) and HL60 cell translocation over CHO—P monolayers were measured at wall shear rates of 300 and 600 s-1. Gallic acid was added to HL60 cell suspensions 2 minutes before the onset of perfusion. To prevent oxidation, the gallic acid solution was prepared freshly. Real time movies of 12 seconds (10 images per second), recorded at predefined positions in the flow path corresponding to chosen wall shear rates were stored and digitised with a Scion LG3 frame grabber (Scion Corp, Frederick, Mich., U.S.A.). The average velocity of HL60 cells rolling over the CHO—P cells was calculated from the rolling distance of the HL60 cells in a 1 second timeframe, using the NIH Image program version 6.1. The number of adhered HL60 cells was counted from pictures taken during the same experiment."}}, "data": [{"molecule": "(−)-epigallocatechin gallate [EGCG]", "values": [{"measurement": "IC50", "setting": "[1]", "result": 114, "unit": "µM"}, {"measurement": "Maximal platelet aggregation", "setting": "[2]; 250 μM", "result": "no significant inhibition"}, {"measurement": "Maximal platelet aggregation", "setting": "[2]; 500 μM", "result": "inhibit platelet aggregation significantly"}]}, {"molecule": "O=C(O)/C=C/c1ccc(O)c(O)c1", "note": "[caffeic acid]", "values": [{"measurement": "IC50", "setting": "[1]", "result": "> 300", "unit": "µM"}]}, {"molecule": "O=C(O)c1cc(O)c(O)c(O)c1", "note": "[gallic acid, 3,4,5-trihydroxybenzoic acid]", "values": [{"measurement": "Binding to P-selectin, mouse versus human", "setting": "[3]", "result": "species-independent"}, {"measurement": "IC50", "setting": "[4]", "result": 241, "unit": "µM"}, {"measurement": "Inhibition of E-selectin binding", "setting": "[5]", "result": "less than 20%"}, {"measurement": "IC50", "setting": "[6]", "result": 7.2, "unit": "µM"}, {"measurement": "Conjugate rolling over femoral vein endothelium, number of conjugates rolling per unit of surface", "setting": "[7]; C57/B16 mice (WT), FIG. 8A", "result": "Dose-dependent inhibition"}, {"measurement": "Rolling of preformed leukocyte-platelet conjugates, percentage of rolling in absence of gallic acid", "setting": "[7]; aged atherosclerotic ApoE-/- mice, FIG. 8B", "result": "Inhibition"}, {"measurement": "Effective plasma concentration corresponding to ED50", "setting": "[7]; mice, at ED50 of rosette tumbling", "result": 40, "unit": "µM"}, {"measurement": "ED50, dose giving half maximal inhibition of rosette tumbling", "setting": "[7]; mice, infusion 0.75 to 7.5 mg/kg.h, counted 10 min after collagen injection", "result": "1.5±0.4", "unit": "mg/kg.h"}, {"measurement": "IC50", "setting": "[1]", "result": "~85", "unit": "µM"}, {"measurement": "Change of HL60 cell adhesion to CHO-P monolayer vs untreated control", "setting": "[8]; 50 μM, wall shear rate 300 s^-1", "result": "−34", "unit": "%"}, {"measurement": "Change of HL60 cell adhesion to CHO-P monolayer vs untreated control", "setting": "[8]; 50 μM, wall shear rate 600 s^-1", "result": "−43", "unit": "%"}, {"measurement": "Change of HL60 cell adhesion to CHO-P monolayer vs untreated control", "setting": "[8]; 250 μM, wall shear rate 300 s^-1", "result": "−41", "unit": "%"}, {"measurement": "Change of HL60 cell adhesion to CHO-P monolayer vs untreated control", "setting": "[8]; 250 μM, wall shear rate 600 s^-1", "result": "−54", "unit": "%"}, {"measurement": "Rolling velocity of HL60 cells across CHO-P monolayer", "setting": "[8]; 50 and 250 μM", "result": "doubled"}, {"measurement": "Maximal platelet aggregation", "setting": "[2]; 250 μM", "result": "no significant inhibition"}, {"measurement": "Maximal platelet aggregation", "setting": "[2]; 500 μM", "result": "inhibit platelet aggregation significantly"}]}, {"molecule": "CCCCCCCCCCCCOC(=O)c1cc(O)c(O)c(O)c1", "note": "[n-dodecyl gallate]", "values": [{"measurement": "IC50", "setting": "[1]", "result": "> 300", "unit": "µM"}, {"measurement": "Platelet lysis", "setting": "[2]; human platelets, not usable in aggregation test", "result": "causes platelet lysis"}]}, {"molecule": "O=C(O)c1ccc(O)cc1", "note": "[4-hydroxy benzoic acid]", "values": [{"measurement": "IC50", "setting": "[1]", "result": "> 300", "unit": "µM"}]}]}
